Assay [1] deals with pCHK1 (S345) in Colo320 DM cells. In words: Alphalisa assay: pCHK1 (S345) detection in Colo320 DM cells. The class given is cell-based, human. Conditions: Homo sapiens, COLO 320DM, compound incubation overnight (approximately 16 hours), pCHK1 (S345) AlphaLisa Sure Fire kit. Here is the method: Colo320 DM cells (ATCC #CCL-220, derived from human colorectal adenocarcinoma, Dukes' type C) were seeded on a 96-well, cell culture treated assay plate at a density of 50,000 cells/well in 200 μL of RPMI-1640 media supplemented with 10% Fetal Bovine Serum and incubated at 37 degrees Celsius overnight. The following day, test compound dilutions were added directly to the plated cells by a Tecan digital dispenser to a final DMSO concentration of <0.5%. and incubated at 37 degrees Celsius overnight (approximately 16 hours). The following day all cull culture media was removed from the cells. 75 μL of 1× AlphaLisa lysis buffer was added to each well and plates were agitated on a shaker for 30 minutes at room temperature. The lysis of cells and detection of pCHK1 (S345) were performed with regents contained within the AlphaLisa Sure Fire assay kit (Perkin Elmer #ALSU-PCHK1-A) according to the manufacturer's instructions. 10 μL of each lysate was then transferred to a white, 384-well assay plate (Perkin Elmer #6008280). 5 μL of Acceptor mix was then added to each well of lysate in the white, 384-well assay plate and incubated in the dark at room temperature for 60 minutes. 5 μL of Donor mix was then added to each well of the white, 384-well assay plate in subdued light and incubated at room temperature for 60 minutes. Plates were read on an Alpha Technology-compatible plate reader using standard AlphaLisa settings.

The next assay has as its target RNR (RNR1:RNR2 1:1) (Homo sapiens (Human), UniProt P23921). In words: RNR enzyme activity, rapid-fire mass spectrometry (RF/MS) assay. The class given is biochemical. To be noted: RNR 50 nM, 1:1 RNR1:RNR2; CDP 5 μM, ATP 1 mM; 37° C., 45 min; compounds screened up to 50 μM. The protocol:
A rapid-fire mass spectrometry (RF/MS) assay was used to assess RNR enzyme activity using a 384 well plate and a robotic platform.
The plate layout included two validated reference compounds (Triapine (3-AP) and Hydroxyurea (HU)): • A dose response in duplicate; top concentration: 5 μM (3-AP) and 250 μM (HU), semi-log • dilutions. • Spike wells in triplicate randomly spotted at four concentrations: • 250 μM, 100 μM, 30 μM and 2 μM for HU • 5 μM, 2 μM, 0.6 μM and 0.04 μM for 3-AP
First, the multidrop pipes were saturated for 30 minutes with enzymatic solution. Then 30 μL of Stop solution was distributed in column 24. Next, 15 μL of enzyme was distributed in column 1 to 24. Next, a pre-incubation step of 15 minutes at room temperature occurred, followed by distribution of 15 μL of substrate solution (column 1 to 24). Next, the plate was incubated for 45 minutes at 37° C. 30 μL of Stop solution was distributed to columns 1 to 23.
The final parameters for the enzyme reactions were: • Incubation: 37° C., 45 min • [CDP]: 5 μM; [ATP]: 1 mM; [NADPH]: No • [RNR]final: 50 nM with 1:1 (RNR1:RNR2) ratio • Final volume: 30 μL • Stop solution: 6% HCOOH containing 2 μM of 15

Chain of RNR (RNR1:RNR2 1:1) (P23921 whole entry): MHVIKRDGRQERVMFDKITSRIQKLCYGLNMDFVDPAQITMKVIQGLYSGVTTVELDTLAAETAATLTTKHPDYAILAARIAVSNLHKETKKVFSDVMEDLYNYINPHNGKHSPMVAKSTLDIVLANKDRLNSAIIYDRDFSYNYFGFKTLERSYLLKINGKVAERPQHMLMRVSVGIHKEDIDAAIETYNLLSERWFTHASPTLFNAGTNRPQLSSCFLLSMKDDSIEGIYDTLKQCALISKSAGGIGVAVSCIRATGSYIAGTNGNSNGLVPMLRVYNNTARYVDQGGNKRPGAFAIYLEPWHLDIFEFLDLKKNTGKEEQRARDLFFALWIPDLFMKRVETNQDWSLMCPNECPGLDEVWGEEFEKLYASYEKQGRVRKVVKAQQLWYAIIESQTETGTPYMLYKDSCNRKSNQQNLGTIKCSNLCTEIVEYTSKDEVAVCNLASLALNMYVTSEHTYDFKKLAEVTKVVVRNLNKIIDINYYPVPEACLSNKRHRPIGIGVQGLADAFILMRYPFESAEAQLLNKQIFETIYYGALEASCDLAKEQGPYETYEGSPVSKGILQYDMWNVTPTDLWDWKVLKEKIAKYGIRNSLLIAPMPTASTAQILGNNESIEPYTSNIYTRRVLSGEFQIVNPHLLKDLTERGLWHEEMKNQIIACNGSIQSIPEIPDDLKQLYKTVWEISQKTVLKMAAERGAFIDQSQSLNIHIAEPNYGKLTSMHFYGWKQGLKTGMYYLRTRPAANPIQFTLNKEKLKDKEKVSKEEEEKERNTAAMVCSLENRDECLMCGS

For `Cc1ccc(F)c(C(C)[C@@H](c2n[nH]c(=O)o2)N2CC(C)c3cc(Cl)ccc3S2(=O)=O)c1C` (stereo partly drawn) [Example 20, 5-((1S)-1-(6-chloro-4-methyl-1,1-dioxido-3,4-dihydro-2H-benzo[e][1,2]thiazin-2-yl)-2-(6-fluoro-2,3-dimethylphenyl)propyl)-1,3,4-oxadiazol-2(3H)-one], the figures for the IC50 (in assay [1]; against RNR (RNR1:RNR2 1:1)) were ≤ 5 µM and ≤ 0.1 µM, respectively.

In the case of `Cc1ccc(F)c(C(C)[C@@H](c2n[nH]c(=O)o2)N2CC(C)(C)c3cc(Cl)ccc3S2(=O)=O)c1C` (stereo partly drawn) [Example 21, 5-((1S)-1-(6-chloro-4,4-dimethyl-1,1-dioxido-3,4-dihydro-2H-benzo[e][1,2]thiazin-2-yl)-2-(6-fluoro-2,3-dimethylphenyl)propyl)-1,3,4-oxadiazol-2(3H)-one], the results for the IC50 (in assay [1]; against RNR (RNR1:RNR2 1:1)) were > 50 µM and 1 to 10 µM, respectively.

For the molecule `Cc1ccc(F)c([C@@H](C)[C@@H](c2n[nH]c(=O)o2)N2CC(F)(F)c3cc(Cl)ccc3S2(=O)=O)c1C` [Example 22, 5-((1S,2R)-1-(6-chloro-4,4-difluoro-1,1-dioxido-3,4-dihydro-2H-benzo[e][1,2]thiazin-2-yl)-2-(6-fluoro-2,3-dimethylphenyl)propyl)-1,3,4-oxadiazol-2(3H)-one], the half-inhibitory concentration (IC50) in assay [1] was 5 to 10 µM; against RNR (RNR1:RNR2 1:1), 0.1 to 1 µM.

Regarding `Cc1ccc(F)c([C@@H](C)[C@@H](c2n[nH]c(=O)o2)N2CCc3c(Cl)cccc3S2(=O)=O)c1C` [Example 23, 5-((1S,2R)-1-(5-chloro-1,1-dioxido-3,4-dihydro-2H-benzo[e][1,2]thiazin-2-yl)-2-(6-fluoro-2,3-dimethylphenyl)propyl)-1,3,4-oxadiazol-2(3H)-one], the half-maximal inhibitory concentration (IC50) lay in the range of 10 to 50 µM in assay [1] and 0.1 to 1 µM against RNR (RNR1:RNR2 1:1).

Take `Cc1ccc(F)c([C@@H](C)[C@@H](c2n[nH]c(=O)o2)N2CCc3nc(Cl)ccc3S2(=O)=O)c1C` [Example 24, 5-((1S,2R)-1-(6-chloro-1,1-dioxido-3,4-dihydro-2H-pyrido[2,3-e] [1,2]thiazin-2-yl)-2-(6-fluoro-2,3-dimethylphenyl)propyl)-1,3,4-oxadiazol-2(3H)-one]: the IC50 in assay [1] is ≤ 5 µM; at RNR (RNR1:RNR2 1:1) it was ≤ 0.1 µM.

As to `Cc1ccc(F)c([C@@H](C)[C@@H](c2n[nH]c(=O)o2)N2CC(C)(O)c3cc(Cl)ccc3S2(=O)=O)c1C` (stereo partly drawn) [Example 25, 5-((1S,2R)-1-(6-chloro-4-hydroxy-4-methyl-1,1-dioxido-3,4-dihydro-2H-benzo[e][1,2]thiazin-2-yl)-2-(6-fluoro-2,3-dimethylphenyl)propyl)-1,3,4-oxadiazol-2(3H)-one], the IC50 in assay [1] is 10 to 50 µM; against RNR (RNR1:RNR2 1:1) it was ≤ 0.1 µM.

As for `Cc1ccc(F)c(C(C)[C@@H](c2n[nH]c(=O)o2)N2C[C@H](O)[C@H](O)c3cc(Cl)ccc3S2(=O)=O)c1C` (stereo partly drawn) [Example 26, 5-((1S)-1-((4S, 5R)-7-chloro-4,5-dihydroxy-1,1-dioxido-4,5-dihydrobenzo [f][1,2]thiazepin-2(3H)-yl)-2-(6-fluoro-2,3-dimethylphenyl)propyl)-1,3,4-oxadiazol-2(3H)-one], the concentration for half-maximal inhibition (IC50) in assay [1] was 10 to 50 µM; against RNR (RNR1:RNR2 1:1) it was ≤ 0.1 µM.

For `Cc1ccc(F)c([C@@H](C)[C@@H](c2n[nH]c(=O)o2)N2CCc3cc(Cl)ncc3S2(=O)=O)c1C` [Example 27, 5-((1S,2R)-1-(6-chloro-1,1-dioxido-3,4-dihydro-2H-pyrido[4,3-e] [1,2]thiazin-2-yl)-2-(6-fluoro-2,3-dimethylphenyl)propyl)-1,3,4-oxadiazol-2(3H)-one], the results for the IC50 (in assay [1]; at RNR (RNR1:RNR2 1:1)) were > 50 µM and 0.1 to 1 µM, respectively.

The record behind these values is US20250002486A1, “CYCLIC SULFONAMIDE RIBONUCLEOTIDE REDUCTASE (RNR) INHIBITORS AND USES THEREOF” (Boundless Bio, Inc., priority 2021, published 2025).
